Measurements reported in patent publication US20250136652A1, “FUSION PROTEIN FOR TARGETING RECOMBINANT PROTEINS FOR DEGRADATION” (The Regents of the University of California, priority 2022, published 2025).

Legend:
[1] = test system: 4-1BB variant second-generation ('BBz') CARs that target CD19 or HER2; test: Surface CAR expression in Jurkat T cells by anti-myc antibody stain and flow cytometry; format: cell-based; details: 72 hours after removal of lentivirus
Procedure: FIG. 4A: Tethering of STUD to plasma membrane allows for functional knockdown for second-generation chimeric antigen receptors (CAR). Cartoon diagram of membrane tethered STUD (‘memSTUD’) and non-functional (‘NF’) control relative to original ‘soluble’ STUD design. The DNA cartoon represents the plasmid used in experiments done in this panel. (RRRG (SEQ ID NO:32); TRGN (SEQ ID NO:50)).
FIG. 4B: Plasmid diagramed in FIG. 4A transduced into Jurkat T cells and CAR fluorescence measured 72 hours removal of lentivirus. CAR fluorescence is measured by antibody stain for myc tag fused to CAR extracellular domain. […] Dots represent three independent experiments and errors bars show standard deviation.
Increasing the local concentration of the STUD at the membrane by fusion to a membrane localization domain was tested. […] The surface CAR expression by fluorescence of this antibody stain was measured by flow cytometry.
Membrane targeting STUD: Membrane targeting cells were introduced by lentiviral transduction of two plasmids. […] Cells were then analyzed by flow cytometry. Cells were gated on expression of co-transduction fluorescent proteins (BFP/mCherry) and STUD efficacy was measured by knockdown of CAR/SynNotch. CAR and SynNotch expression was measured by antibody staining for a peptide tag fused to the extracellular domain of the CAR/SynNotch. […]

[2] = test system: green fluorescent protein (GFP) target; test: STUD-induced degradation of GFP target in Jurkat T cells, flow cytometry; format: cell-based; details: GFP normalized by tagBFP, 72 hours following removal of lentivirus
Procedure: Jurkat cells were lentivirally transduced with two plasmids. The first encodes a STUD, or control with a mutated degron, and a mCherry transduction marker separated by a 2A element and the second encodes GFP target protein and a BFP transduction marker separated by a 2A element. In the case of the SynZip STUD, the GFP target is fused to a heterodimeric SynZip protein complementary to the binding domain on the STUD. These transduced cells are analyzed for fluorescence by flow cytometry […] after removal of virus. Cells are first gated on these transduction markers to isolate relevant populations. Then, normalized GFP fluorescence is calculated by normalizing each cell's GFP fluorescence, as obtained by flow cytometry, by its BFP fluorescence. Then, the median normalized GFP fluorescence of each flow cytometry distribution is calculated and shown in the bar plot. Each dot represents the mean of the median normalized GFP fluorescence of three technical replicates in three independent experiments. […]
Either the SynZip STUD and the antiGFP nanobody STUD in Jurkat T cells alongside a plasmid encoding either GFP fused to a complementary SynZip or GFP alone, respectively (FIG. 2B) were lentivirally transduced. 72 hours following removal of lentivirus, we assay for GFP fluorescence by flow cytometry. […] Representative histograms of unnormalized GFP fluorescence are also shown for reference. […]

SynZip STUD: Fusion protein SEQ ID NO: 413: lysine-free modified synZIP18 heterodimerization domain, flexible linker, C-terminal RRRG degron; 55 amino acids (SIAATLENDLARLENENARLERDIANLERDLARLEREEAYFGSGSGSGSGSRRRG)
degradation of CAR (surface CAR expression) [1]: inefficiently
fold change of median normalized GFP fluorescence [2]: approximately 42 fold
